Measured values reported in patent US6803479B2, “Reagents and method for spatio-temporal control of gene expression by illumination” (University of Maryland Biotechnology Institute, priority 2001, dated 2004).
In brackets after ≈: the same amount, converted by molar mass. Entries after “also recorded” stand apart in the source; their conditions may differ.

Assays:
ecdysone receptor [1] = details: cited from earlier work
[2] = test system: EGFP-Kir2.1 fusion protein under ecdysone promoter control (VgEcR/RXR); experiment: Induction of reporter genes in primary rat anterior pituitary cells after adenovirus-mediated gene transfer; format: cell-based; details: 24 hours, single-cell microfluorimetry
Excerpt: Anterior pituitary glands were removed from female Sprague-Dawley rats, enzymatically dissociated, and plated onto No. 1 polylysine-coated glass coverslips for culturing as previously described (Ho et al. 1995). The cells were doubly infected with one adenovirus (AdVgRXR) that allows constitutive expression of a modified ecdysone receptor (VgEcR) and the retinoid X receptor (RXR) and a second adenovirus (AdGFIRK) that places under ecdysone promoter control the expression of a fusion protein between EGFP and a potassium channel of the inward rectifier family (Kir2.1). For infection, the adenoviruses were applied at 200 pfu's per cell in infection medium for 3-5 hours. The cells were then allowed to recover for 24 hours before being treated with ecdysoids (ponasterone A, NSE-1) or solvent vehicle for 24 hours.
After induction, cells were then randomly chosen through a phase-contrast view and EGFP expression in each chosen cell was monitored by single-cell microfluorimetry. Because the EGFP-Kir2.1 fusion protein should be targeted to the plasma membrane, we expect its presence in the plasma membrane as well as in the Golgi-as the images in FIG. 5 indeed illustrate. A quantitative summary of the microfluorimetric data is shown in FIG. 6 (note break in y-axis scale; N shown at the base of each bar). […]

ecdysone receptor [3] = experiment: Activation of the ecdysone-regulable gene expression system; format: cell-based, D. melanogaster
Excerpt: The ecydysone-regulable gene expression system relies on a recombinant ecdysone receptor (VgEcR), which is an N-terminal truncation of the natural ecdysone receptor from D. melanogaster fused to the activation domain of VP16 from HSV; VgEcR also bears 3 point mutations in the P box of the DNA-binding domain of EcR to resemble that of the glucocorticoid receptor (GR) to allow recognition of a synthetic ecdysone-response element (E/GRE), which consists of inverted half-site recognition elements for the retinoid X receptor (RXR) and GR DNA-binding domains. The hybrid E/GRE sequence is designed to evade recognition by any endogenous nuclear receptors. With RXR, the vertebrate homologue of Drosophila ultraspiracle (Yao et al. 1992), VgEcR forms a heterodimer that binds to E/GRE and initiates transcription. The ecdysone-inducible expression system has very low basal expression (No et al. 1996), because the presence of ecdysoid hormones is obligatory for receptor heterodimerization and DNA binding (Yao et al. 1993). Finally, ecdysoid hormones have no known corresponding bioactivity in vertebrates, presumably because there are no processes homologous to molting.
That these ecdysone analogues are steroids presents the same chemical obstacle to caging as did mifepristone. Fortunately, however, members of the bisacylhydrazine family are potent activators of the ecdysone receptor, and they are accessible by facile organic synthetic routes. As shown in Preliminary Studies, we have successfully synthesized a non-steroidal ecdysoid (NSE) from this class of compounds. […] Furthermore, because non-steroidal mimics of ecdysoid molting hormone have been of great interest to the agrichemical business, the acute toxicity, mutagenicity, carcinogenicity, and teratogenicity of the bisacylhydrazine family of NSEs have been extensively tested since the compounds were serendipitously discovered as ecdysone mimetics in 1983 (see Dhadialla et al. 1998 and references therein).

NIH3T3-ER fibroblasts = experiment: Toxicity in cell culture (CyQuant DNA quantification); format: cell-based; details: 48 hours
Procedure: Cellular toxicity of NSE-1 was tested in cell culture. NIH3T3-ER fibroblasts (Stratagene, La Jolla, Calif.) were seeded into 96-well plates, allowed to attach for 24 hours in DMEM supplemented with 10% v/v fetal bovine serium (FBS). The medium was then replaced with DMEM-10 FBS containing ecdysoid drugs or solvent vehicle, and the cells were allowed to grow for 48 hours, at the end of which the cells were lysed and the amount of DNA in each well quantified through the CyQuant assay (Molecular Probes, Inc. Eugene, Oreg.).
Cellular toxicity of NSE-1 was tested in cell culture. NIH3T3-ER fibroblasts (Stratagene) were seeded into 96-well plates, allowed to attach for 24 hours in DMEM supplemented with 10% v/v fetal bovine serum (FBS). The medium was then replaced with DMEM-10% FBS containing ecdysoid drugs or solvent vehicle. Ethanol and DMSO were vehicle controls for ponasterone A and NSE-1, respectively. The cells were allowed to grow for 48 hours, at the end of which the cells were permeabilized and the amount of DNA in each well quantified with the CyQuant assay (Molecular Probes). […] The data are summarized in FIG. 1 (each measurement is the mean of 6 wells).

mice = experiment: Toxicity in animals (intraperitoneal injections); format: in vivo; details: 8 mice, 32.5 mg/ml suspension, six 200-μl aliquots at 12-hour intervals
Procedure: NSE-1 was suspended (32.5 mg/ml) in carrier vehicle consisting of 15% w/v Pluronic F127 surfactant (BASF Corp., Wyandotte, Mich.) and 3% v/v dimethylsulfoxide in phosphate buffered saline (PBS, pH 7). […] These observations give at least preliminary data showing that NSE-1 is not acutely toxic to mammals.
NSE-1 was suspended (32.5 mg/ml) in vehicle consisting of 15% w/v Pluronic F127 surfactant (BASF Corp., Wyandotte, Mich.) and 3% v/v dimethylsulfoxide in phosphate buffered saline (PBS, pH 7).

Aqueous solubility = format: physicochemical; details: aqueous KCl/HEPES buffer, 100 mM KCl, 10 mM K · HEPES, pH 7.4
[4] = test system: EGFP reporter gene under ecdysone promoter control in NIH3T3-ER cells; experiment: Induction of reporter gene expression in transiently-transfected cells; format: cell-based; details: 30 μM, 48 hours, single-cell microfluorimetry, NIH3T3-ER cells with pEGSH-EGFP
Procedure: NIH3T3-ER cells were transiently transfected with a plasmid pEGSH-GFP carrying the reporter eGFP gene under ecdysone promoter control. The transfected cells were treated with 10 μM ponasterone A, or 30 μM NSE-1, or plain medium for 48 hours and then screened for induction of eGFP expression by single-cell microfluorimetry.
NIH3T3-ER cells, in which expression of a modified ecdysone receptor and the retinoid X co-receptor are driven by the CMV promoter, were transiently transfected with the pEGSH-EGFP plasmid using FuGene 6 transfection reagent. The transfected cells were treated with 30 μM NSE-1 or vehicle for 48 hours and then screened for induction of EGFP expression by single-cell microfluorimetry.

Compound: CC(C)CC[C@@H](O)[C@](C)(O)[C@H]1CC[C@@]2(O)C3=CC(=O)[C@]4(O)C[C@@H](O)[C@@H](O)C[C@]4(C)[C@H]3[C@H](O)C[C@]12C [muristerone A]
- activation of the ecdysone receptor (ecdysone receptor [1]): much more robustly activated

Compound: CC(C)CC[C@@H](O)[C@](C)(O)[C@H]1CC[C@@]2(O)C3=CC(=O)[C@@H]4C[C@@H](O)[C@@H](O)C[C@]4(C)[C@H]3CC[C@]12C [Ponasterone A, reference compound]
- induction of expression of the EGFP-Kir2.1 fusion protein [2]: can strongly induce expression
- activation of the ecdysone receptor (ecdysone receptor [1]): much more robustly activated
- concentrations required for activating the ecdysone system (ecdysone receptor [3]): in the μM range
- growth capacity of the cells (amount of DNA, CyQuant) (NIH3T3-ER fibroblasts; 10 μM): Neither Ponasterone A at 10 μM, nor NSE-1 at 10, 30 or 100 μM significantly affected the growth capacity of the cells

Compound: CC(C)(O)CC[C@@H](O)[C@](C)(O)[C@H]1CC[C@@]2(O)C3=CC(=O)[C@@H]4C[C@@H](O)[C@@H](O)C[C@]4(C)[C@H]3CC[C@]12C [20-hydroxy-ecdysone]
- activation of the ecdysone receptor (ecdysone receptor [1]): moderately activated

Compound: CCc1c(OC)cccc1C(=O)NN(C(=O)c1cc(C)cc(C)c1)C(C)(C)C [NSE-1, 1-(3,5-dimethylbenzoyl)-1-tert-butyl-2-(2-ethyl-3-methoxybenzoyl)hydrazine]
- induction of expression of the EGFP-Kir2.1 fusion protein [2]: can strongly induce expression
- signs of intoxication (mice): did not produce any signs of intoxication
- activity in inducing expression of reporter genes under ecdysone promoter control, relative to ponasterone A (ecdysone receptor [3]): as active as ponasterone A
- concentrations required for activating the ecdysone system (ecdysone receptor [3]): in the μM range
- solubility (Aqueous solubility): 47 µM (≈ 18 µg/mL)
- induction of EGFP expression [4]: efficacy of NSE-1 in inducing transgenes in cultured cell lines; also recorded: can induce EGFP reporter expression
- growth capacity of the cells (amount of DNA, CyQuant) (NIH3T3-ER fibroblasts; 10 μM): Neither Ponasterone A at 10 μM, nor NSE-1 at 10, 30 or 100 μM significantly affected the growth capacity of the cells
- growth capacity of the cells (amount of DNA, CyQuant) (NIH3T3-ER fibroblasts; 30 μM): Neither Ponasterone A at 10 μM, nor NSE-1 at 10, 30 or 100 μM significantly affected the growth capacity of the cells
- growth capacity of the cells (amount of DNA, CyQuant) (NIH3T3-ER fibroblasts; 100 μM): Neither Ponasterone A at 10 μM, nor NSE-1 at 10, 30 or 100 μM significantly affected the growth capacity of the cells
